Experimental data published in patent US20240002470A1, “Method for separation and/or detection and/or in vitro quantification of infectious compounds in biological material” (priority 2020, published 2024).

How the values were obtained:
[1] = tested on: ISAV virus (Infectious salmon anemia virus); assay: Capture of ISAV virus on magnetic microbeads coated with pepβ2GPI, RT-PCR quantification; type: binding; settings: for % compared to β2GPI: ISAV copies captured relative to β2GPI beads; for ISAV copies: virus captured on coated beads from culture supernatant
Text: The virus used is the ISAV virus (Infectious salmon anemia virus), responsible for anemia in salmon, originating from a culture supernatant.
The microbeads, intended to fix the virus, which are used are magnetic microbeads sold by the company MERCK under the name “Estapor® super-paramagnetic microspheres” which have a diameter between […].
(§1) The pepβ2GPI were grafted onto the microbeads according to the supplier's recommendations. In summary, the microbeads are suspended in phosphate buffer at a pH of 6.0. The beads are then activated, for 15 minutes, in the presence of 1-ethyl-3-(3-Dimethylaminopropyl) carbodiimide and N-hydroxysuccinimide. After washing with HCl, 2 mM, the beads are suspended in a phosphate buffer at a pH of 7.5, containing the pepβ2GPI. The concentration of pepβ2GPI in this coupling buffer is 20 mg/L; the microbeads are incubated in the buffer with gentle and constant shaking at a temperature of 25° C. for 3 hours. The microbeads are then centrifuged at 1,500 rpm and the supernatant is removed; the centrifugation pellet is suspended in the same buffer as that used for the coupling of pepβ2GPI, which forms the suspension of microbeads coated with pepβ2GPI which we want to test.
(§2) One hundred microliters of viral culture supernatant to be studied are placed in an Eppendorf tube with 900 microliters of Tris buffer at a pH of 7.5 and 10 microliters of microbeads. The tubes are shaken horizontally to mix the microbeads well, and each tube is incubated at 37° C. or at room temperature (RT=22° C.) for 30 minutes. In each tube, the microbeads are then separated from the liquid phase by means of a magnet, placed externally against the wall of the tube, and the viral RNA is extracted. The beads are brought into contact with a viral lysis buffer, included in an RNA extraction kit: QIAamp RNA viral kit, sold by QIAGEN and the viral RNA is isolated according to the seller's recommendations.
The RNA is then transcribed into complementary DNA, in the presence of reverse transcriptase, according to the following protocol:
Finally, the complementary DNA (cDNA) is amplified by chain reaction using a polymerase and quantified according to the following protocol: […]

[2] = tested on: HCV virus (hepatitis C virus); assay: Capture of HCV virus from patient plasma on magnetic microbeads coated with pepβ2GPI, RT-PCR quantification; type: binding; settings: for % compared to β2GPI: HCV copies captured relative to β2GPI beads; for HCV/run copies: per run, virus captured on coated beads from plasma of patients
Method: as §1, §2
The virus used is the HCV virus (hepatitis C virus), present in the plasma of patients. The same protocol as described in example 1 was carried out.

[3] = tested on: BVDV virus (Bovine viral Diarrhea Virus); assay: Capture of BVDV virus on magnetic microbeads coated with pepβ2GPI; type: binding
Method: as §1, §2
(§3) The viruses tested are the HSV virus (Herpes Simplex virus) and the BVDV virus (Bovine viral Diarrhea Virus).
(§4) The same protocol as that described in example 1 was carried out.

[4] = tested on: HSV virus (Herpes Simplex virus); assay: Capture of HSV virus on magnetic microbeads coated with pepβ2GPI; type: binding
Method: as §1, §2, §3, §4

E. coli B6054 [5] = assay: Capture on magnetic microbeads coated with pepβ2GPI: H61 E. coli B6054; type: binding
Method: (§5) To test the interaction of microbeads coated with β2GPI and the peptides derived from them, with bacteria present in the blood, 1 ml of blood culture is taken from each sample and placed in a 15 ml tube. 20 μl of microbeads are added and each tube is incubated at 37° C. with horizontal shaking. The tubes are then placed in a magnetic field which retains the microbeads on the wall and the supernatant is removed. The microbeads are then washed twice with sterile PBS, of the same composition as previously indicated; the microbeads are then resuspended in 150 μl of BTS culture medium. Two methods for detecting bacteria captured by microbeads were used: culture on TS agar and PCR For the detection of the bacterial capture by culture, 50 μl of the suspension of microbeads thus obtained are taken and they are spread out in a Petri dish containing TS agar. Petri dishes are incubated in an oven at 37° C. for 24 hours. The bacteria that have grown on the agar were then counted.
(§6) The tested bacteria are: C3 E. coli ATCC 11105, C5 S. aureus ATCC 6538, H61 E. coli B6054, C1: E. coli ATCC 8739, H46: C. albicans 1 and H: 60 SCN
(§7) The same protocol and primers as those described in example 9 were carried out.

S. aureus ATCC 6538 = assay: Capture on magnetic microbeads coated with pepβ2GPI: C5 S. aureus ATCC 6538; type: binding
Method: as §5, §6, §7

E. coli B6054 [6] = assay: Capture of E. coli B6054 on magnetic microbeads, culture on TS agar and counting; type: binding, Escherichia coli; settings: E. coli B6054 colonies from captured beads
S. aureus, SA 378804 = assay: Capture of S. aureus SA 378804 on magnetic microbeads, culture and counting; type: binding, Staphylococcus aureus; settings: S. aureus SA 378804 colonies from captured beads
Method: (§8) One ml of the culture of bacteria to be studied is placed in a hemolysis tube. 100 μl of buffer are added, the trade name of which is TTGB, then 20 μl of microbeads. The tube is stirred horizontally, to mix the microbeads well, and incubated at 37° C. or at room temperature (TA=22° C.) for half an hour. At the end of the incubation, the microbeads are separated from the liquid phase by means of a magnet, placed externally against the wall of the tube. The microbeads are then washed twice with LB medium and then resuspended in 1 ml of BTS culture medium (Tripticase-Soy broth) having the following formulation: […]
(§9) This culture medium is brought to a boil and then autoclaved, to make it sterile, before use. 20 μl of the microbead suspension are taken and spread in a Petri dish containing TS agar (Trypticase-Soya agar) having the following formulation: […]
(§10) The Petri dishes are incubated at +37° C. for 24 hours. The bacteria that have grown on the agar are then counted.
The used bacterium is a strain of Staphylococcus aureus (S. aureus), SA 378804, isolated from the wound of the foot of a diabetic person, Sotto et al., Diabetes Care (2008) 31 (12), p. 2318-24. The same experiment as that described in the previous example was carried out.

E. coli ATCC 8739 [7] = assay: Capture of E. coli ATCC 8739 on magnetic microbeads, culture and counting; type: binding, Escherichia coli; settings: E. coli ATCC 8739 colonies from captured beads
Method: as §8, §9, §10
The used bacteria were obtained from a collection strain of Escherichia coli (E. coli), ATCC 8739. The same experiment as that described in the previous example was carried out.

[8] = tested on: IPN virus (Infectious pancreatic necrosis virus); assay: Capture of IPN virus on magnetic microbeads coated with pepβ2GPI, RT-PCR quantification; type: binding; settings: for % compared to β2GPI: IPN copies captured relative to β2GPI beads; for IPN Copies: virus captured on coated beads from culture supernatant
Method: as §1, §2
The virus used is the IPN virus (Infectious pancreatic necrosis virus), responsible for necrosis of the pancreas in salmon, originating from a culture supernatant. The same protocol as described in example 1 was carried out.

E. coli ATCC 11105 = assay: Capture on magnetic microbeads coated with pepβ2GPI: C3 E. coli ATCC 11105; type: binding
Method: as §5, §6, §7

E. coli = settings: cited from earlier work
S. pyogenes = settings: cited from earlier work
S. aureus = settings: cited from earlier work
E. coli ATCC 8739 [9] = assay: Capture on magnetic microbeads coated with pepβ2GPI: C1 E. coli ATCC 8739; type: binding
Method: as §5, §6, §7

C. albicans 1 = assay: Capture on magnetic microbeads coated with pepβ2GPI: H46 C. albicans 1; type: binding
Method: as §5, §6, §7

SCN = assay: Capture on magnetic microbeads coated with pepβ2GPI: H: 60 SCN; type: binding
Method: as §5, §6, §7

binding of β2GPI to LPS = molecular target: T1, binding of β2GPI to LPS (Homo sapiens, UniProt P02749); settings: cited from earlier work
T1 sequence (P02749 20-345): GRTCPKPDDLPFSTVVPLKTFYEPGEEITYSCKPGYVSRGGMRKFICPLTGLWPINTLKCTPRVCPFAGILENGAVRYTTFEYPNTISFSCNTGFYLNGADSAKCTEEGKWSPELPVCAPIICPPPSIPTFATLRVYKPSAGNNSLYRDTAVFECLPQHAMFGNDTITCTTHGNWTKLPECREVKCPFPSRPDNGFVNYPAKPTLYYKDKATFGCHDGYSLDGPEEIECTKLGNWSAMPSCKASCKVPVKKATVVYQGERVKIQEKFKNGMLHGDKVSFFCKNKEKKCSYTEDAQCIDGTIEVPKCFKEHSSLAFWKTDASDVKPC

Row | Substance | % compared to β2GPI [1] | ISAV copies [1] | % compared to β2GPI [2] | HCV/run copies [2] [copies] | Capture of BVDV virus [3] [%] | Capture of HSV virus [4] [%] | Capture of H61 E. coli B6054 (E. coli B6054 [5]) [%] | Capture of C5 S. aureus ATCC 6538 (S. aureus ATCC 6538) [%] | % compared to β2GPI (E. coli B6054 [6]) [%] | % compared to β2GPI (S. aureus, SA 378804) [%] | % compared to β2GPI (E. coli ATCC 8739 [7]) [%] | % compared to β2GPI [8] | IPN Copies [8] [copies] | Capture of C3 E. coli ATCC 11105 (E. coli ATCC 11105) [%] | further results
1 | CKNKEKKC [Peptide P2] | (112%) | 62 700 copies | (72%) | 81 | 181 | 97 | 104 | 80 | 31 | 104 | 15 | (50%) | 6 | 30 | 
2 | CKNKEKKC [Peptide P3] | (117%) | 65 550 copies |  |  | 15 |  | 88 | 65 |  |  |  |  |  | 42 | 
3 | CKNKEKKCGGSSLAFWK [Peptide P4] | (110%) | 61 150 copies | (73%) | 83 | 73 | 357 | 85 | 73 | 44 | 79 | 18 | (100%) | 12 | 26 | 
4 | CKNKEKKCS [CNK8] |  |  |  |  |  |  |  |  |  |  |  |  |  |  | bactericidal effect (E. coli): have a bactericidal effect; bactericidal effect (S. pyogenes): have a bactericidal effect; bactericidal effect (S. aureus): This effect is less
5 | GDKVSFFCKNKEKKCS [GDK15] |  |  |  |  |  |  |  |  |  |  |  |  |  |  | bactericidal effect (E. coli): have a bactericidal effect; bactericidal effect (S. pyogenes): have a bactericidal effect; bactericidal effect (S. aureus): This effect is less
6 | H-(SSLAFWK)2-K—NH2 [Peptide P10] | (105%) | 58 400 copies | (87%) | 98 | 208 | 119 | 79 | 66 | 34 |  | 12 | (67%) | 8 | 45 | Capture of C1: E. coli ATCC 8739 (E. coli ATCC 8739 [9]): 6.17%; Capture of H46: C. albicans 1 (C. albicans 1): 97.9%; Capture of H: 60 SCN (SCN): 49.0%
7 | LAFWKTDA |  |  |  |  |  |  |  |  |  |  |  |  |  |  | inhibiting the binding of β2GPI to LPS (binding of β2GPI to LPS): capable of inhibiting the binding of β2GPI to LPS
8 | SSLAFWK [Peptide P1] | (130%) | 72 300 copies | (163%) | 184 | 7 |  | 71 | 56 | 92 | 115 | 68 | (117%) | 14 | 30 | 
